Test [1] can be described thus: DPPH free radical scavenging assay. Conditions: means ± SD (n = 3); amount needed to scavenge 50% of DPPH radicals. Here is the method: Over-production and the accumulation of free radicals inside the body leads to a phenomenon known as oxidative stress, which causes many serious diseases such as cancer, cardiovascular, and inflammation. Moreover, the harmful effects of this phenomenon can be reduced via using antioxidant compounds as free radical scavengers. Therefore, free radical scavenging capabilities were determined for all compounds by 2,2-diphenyl-1-picrylhydrazyl (DPPH) assay using ascorbic acid (AA) as standard for comparison. The DPPH reducing capabilities of the synthetic analogs 6a–d were evaluated by determining their IC50 values. […] The IC50 value corresponds to the concentration of a sample, which has the ability to scavenge 50% of the free radicals present in the reaction mixture. Low IC50 values indicate that the compound in the sample has high antioxidant activity. […] At the same time, the analog 6c with pyrimidine moiety had the lowest antioxidant activity (9.2 × 10^−5 µM). […]
To 1 mL of various concentrations of ascorbic acid, neocryptolepine and indoloquinoline analogs prepared from methanol, 1 mL solution of DPPH, 0.1 mM was added. […] After 20 min incubation in the dark, absorbance was recorded at 517 nm. […] The percentage scavenging of the extract was calculated.

The next test relates to EAC-induced solid tumor. The test can be described thus: Antitumor activity: reduction in tumor volume of EAC-induced solid tumor. The test is classed as in vivo, Swiss female albino mice. Conditions: day 12 (last day of treatment), 100 mg/kg SC daily for five consecutive days. Here is the method:
The aim of this study is to characterize indoloquinoline analogs 6a–d curative ability and antineoplastic activity on solid-form of Ehrlich tumors. Tumor volume is a potential biomarker for Ehrlich tumor development. The induction of solid tumor in Swiss female mice performed by inserting 0.2 mL of EAC cells (2 × 10^6 cell/mL) subcutaneously (SC) between thighs of the lower limb. When the tumor volume reached 15–20 mm^3 (Seven days after tumor induction), the mice were randomly divided into 6 groups (n = 10), five groups were injected subcutaneously with thalidomide and indoloquinoline analogs 6a–d (100 mg/kg) daily for five consecutive days, the sixth group (positive control group) were given DMSO/saline (0.3/0.7). The 8th day is considered the zero days of treatment. The tumor volume was daily measured with a vernier caliper for four days stated from day eight.
Thalidomide and indoloquinoline derivatives 6a–d were tested for their antitumor effect; the test was done in vivo on mice-bearing solid tumors. The induction of solid tumor in Swiss female mice performed by inserting 0.2 mL of EAC cells (2 × 10^6 cell/mL) subcutaneously (SC) between thighs of the lower limb. Seven days after tumor induction, animals were divided into 6 groups (n = 10), five groups were injected subcutaneously with 100 mg/kg of tested compounds daily for 5 consecutive days, the sixth group (positive control group) were given 0.3 DMSO/0.7 H2O. On day twelve, after carrying out EAC cells, mice were sacrificed, dissected, and change in tumor mass was evaluated by measuring the developed tumor mass volume using the formula [45, 46]:Tumor volume (mm^3) = 0.52 × length × (width)^2.(1)

Test [2] has as its system Ehrlich ascites carcinoma (EAC) cells. The test can be described thus: In vitro cytotoxic activity, trypan blue dye exclusion. The test is classed as cell-based, mice. Conditions: Mus musculus, Ehrlich, 3 h incubation at 37 °C. As for the experimental part: The synthesized indoloquinoline analogs 6a–d were evaluated for their cytotoxic activity against Ehrlich ascites carcinoma (EAC), as depicted in Table 1. The EAC cells used in this study were supplied by National Cancer Institute, Cairo, Egypt. The cells were maintained in vivo in Swiss Albino female mice by intraperitoneal transplantation (0.2 mL of 2 × 10^6 cells/mL). EAC cells were aspirated from the peritoneal cavity of mice, washed with saline and given intraperitoneally to develop ascites tumor. Trypan blue dye exclusion technique was used to figure the viability percentage of EAC cells to assay the cytotoxic activity of the studied compounds. In brief, under completely sterile conditions, EAC cells were separated away from the mice abdomens. Hank’s balanced salt solution (HBSS) was used to wash the separated cells. Cells were put in a cooling centrifuge at 1500 rpm for 15 min; the produced granules were put back into suspension using HBSS, the mentioned steps were done in triplicate. Finally, a measured volume of RPMI 1640 was used to suspend the cells, followed by the addition of 10% fetal bovine serum, 10 µg/mL streptomycin and 100 U/mL penicillin. Consequently, the cell count was adjusted to 2 × 10^6 cells/mL from the prepared diluted cell suspension 0.2 mL was titrated in 96 flat-bottomed tissue culture plates. Serial concentrations of each tested compound were prepared and added in triplicate and incubated at 37 °C for 3 h in a 5% CO2 atmosphere. The IC50 parameter (half-maximum inhibitory concentration) was calculated using Trypan blue dye exclusion test, and then the cytotoxic effect was evaluated using control EAC cells. Thalidomide was used as a reference drug alongside the parent natural compound neocryptolepine I for comparison. Thalidomide was used as a reference drug because its mechanism of action is expected to be similar to the mechanism of action of neocryptolepine analogs as its anticancer action may be based on its antiangiogenic action, resulting from specific DNA intercalation as well as induce cell cycle arrest.
The percentage of EAC cell death of the synthesized derivatives was evaluated by trypan blue exclusion assay. In addition, the compounds 6a–d, as well as the reference drug thalidomide and the parent natural compound neocryptolepine (I), were evaluated through eight concentration levels. It is worth noting that this cytotoxicity was dose-dependent when compared to the reference drug, thalidomide and the control, which was treated with the corresponding dilutions of DMSO.
As a preparation step to perform cytotoxicity assay against the EAC cell line, thalidomide, parent neocryptolepine and the indoloquinoline compounds a 6a, 6b, 6c and 6d were dissolved in DMSO/saline (0.3:0.7) to prepare a solution of 10 mmol concentration. The stock solutions were stored at 4 °C and were used all over the assay. EAC cells were supplied by the National Cancer Institute, Cairo, Egypt. The cells were maintained in vivo in Swiss albino female mice by intraperitoneal transplantation (0.2 mL of 2 × 10^6 cells/mL). EAC cells were aspirated from the peritoneal cavity of mice, washed with saline, and given intraperitoneally to develop ascites tumor.
Trypan blue dye exclusion technique was used to figure the viability percentage of EAC cells to assay the cytotoxic activity of the studied compounds. In brief, under completely sterile conditions, EAC cells were separated away from the mice’s abdomen. Hank’s balanced salt solution (HBSS) was used to wash the separated cells. The cells were put in a cooling centrifuge at 1500 rpm for 15 min; the produced granules were put back into suspension using HBSS, the mentioned steps were done in triplicate. Finally, a measured volume of RPMI 1640 was used to suspend the cells, followed by the addition of 10% fetal bovine serum, 10 µg/mL streptomycin and 100 U/mL penicillin and the cell count was adjusted to 2 × 10^6 cells/mL. […]

The subject of test [3] is solid-tumor (EAC) bearing mice (liver homogenate). The test can be described thus: Lipid peroxidation and antioxidant enzymes in liver homogenate of solid-tumor bearing mice. Conditions: 100 mg/kg for 5 days, liver. The test is classed as in vivo, Swiss female albino mice. Here is the method: Measuring antioxidant enzyme levels and lipid peroxidation was utilized to evaluate the pharmacological effect of indoloquinoline derivatives. The study group was divided into two subgroups, normal mice and tumor-bearing mice. Each subgroup is further subdivided into two groups, one group received indoloquinoline derivatives, and the other group was marked as a placebo group.
After administration of indoloquinoline analogs 6a, 6b, 6c and 6d at a dose of 100 mg/kg for 5 constitutive days to mice with EAC, the levels of lipid peroxidation were highly significant less than that of the positive control group (p < 0.001). Meanwhile, the level of SOD in the liver homogenate of positive bearing mice was 32.1% (p < 0.001) less than that of the normal group (Table 5).
The eradicated liver was double washed first, with ice-cold normal saline then, with cold 0.15 mol/L Tris-HCl buffer (pH 7.4). The clean organ was dried and weighed, and used to prepare a 10% w/v homogenate in 0.15 mol/L Tris-HCl buffer. A portion of the prepared homogenate was centrifuged at 1500 rpm for 15 min at 4 °C [47] and used for estimating lipid peroxidation, SOD [48] and CAT [49] analysis was carried out using the supernatant.

The test system of a further test is MG-63 cells. On the set-up: method as in PMID 18951804, PMID 2953123. Conditions: ref [34],[35]; cited from earlier work.

In test [1], `O=C1O[C@H]([C@@H](O)CO)C(O)=C1O` [Ascorbic acid, ascorbic acid] registered an IC50 of 0.042 nM.
For `O=C1CCC(N2C(=O)c3ccccc3C2=O)C(=O)N1` (centres unmarked) [Thalidomide, reference compound], the “reduction percentage in tumor volume” value in the test on EAC-induced solid tumor was found to be 67.20%. The same compound yielded an IC50 in test [2] of 0.26 nM. In addition, in test [3], the CAT was found to be 5.8 ± 1.5 KU/mg Tissue/s, the “Lipid Peroxidation” value is given as 330.2 ± 8.1 nmol MDA/g Tissue and the SOD came to 108.4 ± 10.2 U/g Tissue. In the test with MG-63 cells, the “effect on cell cycle” value was “induced cell cycle arrest by increasing the number of cells in the G0/G1 phase and decreasing the percentage of S phase”.
Turning to `Cn1c2nc3ccccc3c-2cc2ccccc21` [Neocryptolepine, 5-methyl-5H-indolo[2,3-b] quinoline], the IC50 in test [2] turned out to be 0.54 nM.

Usually IC50 stands for the concentration that gives 50% inhibition. A low value points to inhibition by little substance.

The values are drawn from paper PMC7867085, “In Vitro and In Vivo Antitumor Activity of Indolo[2,3-b] Quinolines, Natural Product Analogs from Neocryptolepine Alkaloid” (Molecules, 2021).
